Laboratory results: US7968535B2, “Use of azapaullones for preventing and treating pancreatic autoimmune disorders” (Develogen Atkiengesellschaft, priority 2005, dated 2011)

How the values were obtained:
[1] = target: T1, cyclin dependent kinase 1 (Homo sapiens, UniProt P06493); experiment: IC50 Profiler Express kinase assay; assay type: biochemical
T1 construct: purchased Upstate Ltd. (IC50 Profiler Express service)
Method: (§1) Experiments were carried out by Upstate Ltd. according to the protocols described in KinaseProfiler™ Assay Protocols, IC50 Profiler Express™ (10-point curves in duplicate) Fall 2004 by Ustate Cell Signaling solutions.

[2] = tested on: human GSK3; experiment: IC50 Profiler Express kinase assay; assay type: biochemical; conditions: 10-point curves in duplicate
Method: as §1

[3] = tested on: INS-1E cells; experiment: Ins-1E cell proliferation assay (BrdU incorporation); assay type: cell-based, rat; conditions: maximum at 1 μM
Method: The proliferation rate of Ins-1E cells was determined by monitoring DNA synthesis using a 5-bromo-2′-deoxyuridine (BrdU) incorporation assay. BrdU is a halogenated nucleotide analogue of thymidine that is incorporated into DNA during the S-phase of the cell cycle. Pulse-labeling of DNA with BrdU and subsequent immunohistochemical detection of labeled nuclei was used to study the rate of cell proliferation. The treatment of INS-1E cells with 4-Azakenpaullone for 24 hours increases BrdU incorporation of Ins-1E cells in a concentration dependent manner, reaching a maximum of about 1.4 fold between 5 μM and 10 μM 4-AKP.
The proliferation of Ins-1E insulinoma cells was determined by monitoring DNA synthesis as an indirect parameter of cell proliferation. The incorporation of the thymidine analogue 5-bromo-2′-deoxyuridine (BrdU) during replication into cellular DNA was used to label the DNA of mitotically active cells. After its incorporation into DNA, BrdU was detected by immunoassay.
10,000 Ins-1E cells were seeded per 96-well (black 96-well tissue culture plates, Falcon #353948) in 100 μl culture medium (RPMI 1640 containing 11 mM glucose, 5% FCS, 10 mM HEPES, 50 μM 2-mercaptoethanol, 1 mM MEM sodium pyruvate, 100 U/ml penicillin, 100 μg/ml streptomycin) and cultivated at 37° C., 5% CO2 in humidified atmosphere for 3 days. Media was changed to 100 μl starvation medium (culture medium with only 5 mM glucose, 1% FCS) and the cells were re-incubated for 1 day. Then media was exchanged to starvation medium containing test substances and the cells were further incubated for 24 h. For the last 4 hours BrdU was added to reach a concentration of 10 μM. Cell proliferation ELISA (Cell Proliferation ELISA, BrdU, chemiluminescence, Roche, cat. No. 1669915) was performed according to the manufacturers guidelines.

T1 sequence (P06493 whole entry, species assumed): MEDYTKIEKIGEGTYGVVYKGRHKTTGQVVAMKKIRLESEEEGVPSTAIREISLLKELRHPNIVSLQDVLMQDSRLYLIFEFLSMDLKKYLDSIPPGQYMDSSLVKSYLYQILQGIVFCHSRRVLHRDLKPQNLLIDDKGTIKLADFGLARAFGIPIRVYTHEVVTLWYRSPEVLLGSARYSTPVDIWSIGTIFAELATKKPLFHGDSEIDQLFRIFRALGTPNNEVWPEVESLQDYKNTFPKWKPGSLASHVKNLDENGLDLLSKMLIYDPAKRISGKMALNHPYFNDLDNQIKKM
T1 sequence (P14635 whole entry partner, species assumed): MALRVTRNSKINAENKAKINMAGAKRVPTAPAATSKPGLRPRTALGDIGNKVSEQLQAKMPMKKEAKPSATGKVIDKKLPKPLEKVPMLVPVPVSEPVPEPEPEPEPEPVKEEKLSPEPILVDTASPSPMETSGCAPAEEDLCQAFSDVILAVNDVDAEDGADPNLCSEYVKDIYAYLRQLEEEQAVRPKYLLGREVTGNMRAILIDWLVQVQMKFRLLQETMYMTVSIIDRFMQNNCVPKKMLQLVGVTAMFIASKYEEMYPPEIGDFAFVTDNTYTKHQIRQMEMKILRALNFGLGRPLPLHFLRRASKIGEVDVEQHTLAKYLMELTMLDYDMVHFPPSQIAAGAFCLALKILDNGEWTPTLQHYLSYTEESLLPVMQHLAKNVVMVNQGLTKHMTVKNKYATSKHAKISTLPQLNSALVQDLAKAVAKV

- inhibition of human GSK3 [2]: potent inhibitor
Structure (SMILES): N#Cc1ccc2[nH]c3c(c2c1)CC(=O)Nc1cccnc1-3 [Compound 10c, 6-Oxo-5,6,7,12-tetrahydropyrido[3′,2′:2,3]azepino[4,5-b]indole-9-carbonitrile]
- affinity to CDK1 relative to 1-Azakenpaullone [1]: higher affinity to CDK1 than the reference compound 1-Azakenpaullone
- inhibition of the enzymatic activity of cyclin dependent kinase 1 ([1]; compared with GSK3): comparatively higher concentration of this inhibitor are required
- BrdU incorporation relative to untreated controls (maximum) [3]: about 1.5 fold
